In article PMC9233739 (Journal of medicinal chemistry, 2016):

test system: P. falciparum TM90-C2B; assay: microbe, parasite or virus in culture; assay type: cell-based; details: Plasmodium falciparum, TM90, read-out: EC50 TM90-C2B

SMILES	EC50 [µM]
O=C1C(O)=C([C@H]2CC[C@H](c3ccc(Cl)cc3)CC2)C(=O)c2ccccc21 [ATO, atovaquone]	0.0184

test system: P. berghei sporozoites; assay: not given; assay type: cell-based; details: liver blood index LBI = TM90-C2B/Pb

SMILES	LBI (TM90-C2B/Pb)
CCCc1cc2c(=O)c(C(=O)OC)c[nH]c2cc1OCCOc1ccccc1 [Compound 6x]	>707
O=c1cc[nH]c2cc(OCCOc3ccccc3)ccc12 [Compound 8a]	<21.7
CCCCc1ccc2[nH]ccc(=O)c2c1 [Compound 8c]	>31.4
COC(=O)c1c[nH]c2cc(F)ccc2c1=O [Compound 6n]	<3.95
COC(=O)c1c[nH]c2ccc(-c3ccccc3)cc2c1=O [Compound 6u]	<40.1
COC(=O)c1c[nH]c2cc(OCCCc3ccccc3)ccc2c1=O [Compound 6j]	>149
COC(=O)c1c[nH]c2ccc(OC)cc2c1=O [Compound 6o]	>134
CCCCCc1cc2c(=O)c(C(=O)OC)c[nH]c2cc1OCCOc1ccccc1 [Compound 6y]	>123

same assay, conditions: liver blood index LBI = W2/Pb

SMILES	LBI (W2/Pb)
CCCc1cc2c(=O)c(C(=O)OC)c[nH]c2cc1OCCOc1ccccc1 [Compound 6x]	>2.62
O=c1cc[nH]c2cc(OCCOc3ccccc3)ccc12 [Compound 8a]	<16.8
COC(=O)c1c[nH]c2cc(F)ccc2c1=O [Compound 6n]	<0.262
COC(=O)c1c[nH]c2ccc(-c3ccccc3)cc2c1=O [Compound 6u]	<11.7
CCCCCc1cc2c(=O)c(C(=O)OC)c[nH]c2cc1OCCOc1ccccc1 [Compound 6y]	>0.33

test system: J774 cell lines; assay: cytotoxicity in J774 cells, 96 well plate format; assay type: cell-based; details: Mus musculus, J774, read-out: EC50 J774 (internal controls)

SMILES	EC50 [µM]
C[C@H]1[C@@H](O)O[C@@H]2O[C@@]3(C)CC[C@H]4[C@H](C)CC[C@@H]1[C@@]24OO3 [DHA, dihydroartemisinin]	1.53
O=C1C(O)=C([C@H]2CC[C@H](c3ccc(Cl)cc3)CC2)C(=O)c2ccccc21 [ATO, atovaquone]	23.8
CCN(CC)CCCC(C)Nc1ccnc2cc(Cl)ccc12 (stereo not shown) [CQ, Chloroquine]	47.2

test system: P. berghei / P. cynomolgi infections; assay: not given; details: cited from earlier work

SMILES	dose producing radical cures [mg/kg]
CCCCc1cc2c(=O)c(C(=O)OC)c[nH]c2cc1OCCOc1ccccc1 [Compound 6b]	15

test system: Plasmodium berghei-GFP parasites; assay: modified Thompson test in mice; details: 10 mg/kg oral on days 3, 4, 5 in HEC/Tween; vs untreated control animals

SMILES	Inhibition (%) Day 6 PE [%]
CCCCc1cc2c(=O)c(C(=O)OC)c[nH]c2cc1OCCOc1ccccc1 [Compound 6b]	<1
